Assays:
Staphylococcus aureus [1] = experiment: Antibacterial activity against methicillin-resistant Staphylococcus aureus; assay type: functional
Staphylococcus aureus [2] = experiment: Antibacterial activity against multidrug-resistant Staphylococcus aureus; assay type: functional

SMILES: C=C[C@@H](O)C#CC#C[C@H](O)CCO
- MIC (Staphylococcus aureus [1]): > 128 µg/mL
- MIC (Staphylococcus aureus [2]): > 128 µg/mL

SMILES: CC1=C2[C@H](O)[C@H](C(C)C)CC[C@@]2(C)[C@H](O)C[C@H]1O (relative stereo)
- MIC (Staphylococcus aureus [1]): > 128 µg/mL
- MIC (Staphylococcus aureus [2]): > 128 µg/mL

— ChEMBL document CHEMBL1151216, “New constituents of Artemisia monosperma” (2004)
